{
  "source": "paper PMC12654037",
  "about": "“Norditerpene Natural Products from Subterranean Fungi with Anti-Parasitic Activity” (Microorganisms, 2025)",
  "key": {"HuF fibroblast cell line": {"system": "HuF fibroblast cell line", "settings": "cited from earlier work"}, "HCT-8 cells": {"system": "HCT-8 cells", "experiment": "HCT-8 cytotoxicity assay", "type": "cell-based", "description": "(§1) HCT-8 and HFF cytotoxicity assays: Cytotoxicity of the compounds was determined against both confluent (the conditions of the infection assays) and growing HCT-8 and HFF host cells, as previously described. Cells were seeded into white-sided, clear-bottom 96-well plates and grown to either 40% or 100% confluency. Compounds were added to cells at various concentrations up to 100 µM in a final DMSO concentration of 0.5%. DMSO was run in parallel as a vehicle control. After 48 h, the viability of the cells was determined by either quantification of cellular ATP (Cell-Titer Glo cell viability assay; Promega, Madison WI, USA) or by MTT assay. Viability was determined 24 h after compound addition to HFF cells or 48 h after compound addition to HCT-8 cells or HepG2 cells. The percent cell growth was then calculated with the following formula: % Cell Growth = [RLUcompound/RLUDMSO] × 100. Samples were run in triplicate with two to three biological replicates."}, "HCT-8 cytotoxicity assay": {"experiment": "HCT-8 cytotoxicity assay", "type": "cell-based", "settings": "human; sub-confluent (~40% confluency); read-out: EC50 cytotoxicity against sub-confluent HCT-8 cells", "description": "as §1"}, "HepG2 human hepatocytes": {"system": "HepG2 human hepatocytes", "experiment": "HepG2 cytotoxicity assay (MTS)", "type": "cell-based", "settings": "48 h, mean +/- SD", "description": "HepG2 cytotoxicity assay: Mammalian cell cytotoxicity was assessed in HepG2 human hepatocytes using an MTS 3-(4,5-dimethylthiazol-2-yl)-5-(3-carboxymethoxyphenyl)-2-(4-sulfophenyl)-2H-tetrazolium)-based cytotoxicity assay. For cytotoxicity testing, ∼2250 cells were seeded into each well of a 384-well microtiter plate and incubated for 24 h. Serial dilutions of the compounds were added in triplicate starting at 25 μM. Cells were further incubated for an additional 48 h at 37 °C in an atmosphere containing 5% CO2. Zero-growth control wells were incubated with 5% Triton X-100 for 5 min prior to MTS addition. Following the addition of MTS to all wells, the plates were incubated for an additional 4 h under the same environmental conditions before taking absorbance measurements. Absorbance values were recorded at 490 nm using a Synergy Neo2 multimode reader (BioTek), and values were normalized based on Triton X-100-lysed and no treatment controls. Samples were run in triplicate in each assay, and the experiments were repeated three times."}, "P. falciparum 3D7": {"system": "P. falciparum 3D7", "experiment": "Plasmodium falciparum growth inhibition assay (SYBR Green I), 3D7", "settings": "3D7, 72 h, read-out: EC50 3D7(M)", "method": "(§2) Plasmodium falciparum growth inhibition assay: Antiplasmodial EC50 results were determined using a fluorescence-based SYBR Green I assay performed using asynchronous cultures [30, 35]. […] Plates were subsequently frozen at −80 °C to facilitate lysis. […] Relative fluorescence units (RFUs) were normalized based on chloroquine-treated and no treatment controls. Serial dilutions of compounds were prepared in RPMI with final assay conditions of ≤0.2% DMSO. Each assay was conducted in triplicate with three biological replicates."}, "P. falciparum line Dd2": {"system": "P. falciparum line Dd2", "experiment": "Plasmodium falciparum growth inhibition assay (SYBR Green I), Dd2", "method": "as §2"}, "T. gondii": {"system": "T. gondii", "experiment": "T. gondii growth inhibition assay (TgRH-Luc:GFP-infected HFF cells)", "type": "cell-based", "settings": "Toxoplasma gondii, 10 µM to 156 nM, Figure 2E", "description": "T. gondii growth inhibition assays: The T. gondii inhibition assay was described previously. Briefly, HFF cells were seeded onto white-sided, clear-bottom 96 well plates, grown to confluence, and then 5000 TgRH-Luc:GFP parasites were added to each well. At 24 hpi, compounds or DMSO were added. The growth of the parasites was determined by relative luminescence at 48 hpi using Promega Bright-Glo (Promega, Madison, WI, USA) substrate. Plates were read, and the percent inhibition of parasite growth was calculated as described above. Determination of -static versus -cidal activity was conducted as indicated above, with parasite growth quantified after 48 h of infection. Each sample was run in triplicate, and each experiment was repeated three times."}, "C. parvum": {"system": "C. parvum", "experiment": "C. parvum growth inhibition assay (Cp-NLuc-infected HCT-8 cells)", "type": "cell-based, Cryptosporidium parvum", "settings": "for EC50: Cryptosporidium parvum", "description": "C. parvum growth inhibition assays: The in vitro growth inhibition assay of C. parvum has been previously described. Briefly, clear-bottom, white-sided 96 well plates were seeded with HCT-8 cells. Once the cells reached between 50% and 75% confluency, they were infected with Cp-NLuc oocysts (10,000/well) in complete media containing 0.6% taurocholate. At 24 h post-infection (hpi), the infected cells were treated with compounds at various concentrations. DMSO was used as a vehicle control in parallel. Parasite growth was determined at 72 hpi by measuring relative luminescence units (RLUs) using Promega Nano-Glo substrate (Promega, Madison, WI, USA) and a SpectraMax® L Microplate Reader (Molecular Devices, San Jose, CA, USA). The percent inhibition of parasite growth was calculated as [(RLUDMSO − RLUcompound)/RLUDMSO] × 100."}, "[1]": {"system": "G. lamblia WBC6 and CBG99 trophozoites", "experiment": "Giardia lamblia trophozoite growth inhibition assay", "type": "cell-based", "settings": "72 h", "description": "Compound inhibition assay against Giardia lamblia WBC6 and CBG99 trophozoites: Biological replicates of growth inhibition assays were performed using wild-type G. lamblia WBC6 and G. lamblia CBG99 trophozoites at 37 °C under reduced oxygen conditions in a sealed 0.5 mL airtight sterile tube (USA Scientific, Ocala, FL, USA), following the susceptibility assay described below. G. lamblia trophozoites were grown in TYI-S-33 medium supplemented with 10% bovine serum and 0.05 mg/mL bovine bile, as previously described. A 3-fold serial concentration of pure compounds starting at 29 µM was screened against 75,000 cells/mL of parasites in modified TYI-S-33 medium with a final dimethyl sulfoxide (DMSO) concentration of 0.14%. Metronidazole was run in parallel at a final highest concentration of 66.7 µM and 3-fold subsequent serial dilutions. The untreated negative control contained 0.14% of DMSO. Sealable test tubes filled to its maximum volume of 700 µL were used to perform this assay. The test tubes were incubated at 37 °C for 72 h. After incubation, the tubes were chilled on ice, and the reaction was transferred to 96-well plates. In the plate, 50 µL of an ATP binding luminescence marker, CellTiter-Glo (Promega, Madison, WI, USA) or 10 µL of 2.5 mg/mL d-luciferin (GoldBio, St Louis, MO, USA) was added to each well and allowed to develop at room temperature for 10 min [31, 36]. The assay was read and analyzed using an EnVision Plate Reader (Perkin Elmer, Waltham, MA, USA). Response curves and EC50 values (the concentration at which 50% of G. lamblia trophozoite growth was inhibited) were calculated using GraphPad Prism (GraphPad, LaJolla, CA, USA)."}, "HFF cells": {"system": "HFF cells", "experiment": "HFF cytotoxicity assay", "type": "cell-based", "description": "as §1"}},
  "note": "Like-named read-outs stand apart in the source and are kept apart here.",
  "data": [
    {"compound": "CO[C@H]1OC(=O)C=C2C1=C[C@H]1OC(=O)[C@@]3(C)CCC[C@@]2(C)[C@@H]13", "note": "[compound 7, oidiolactone B]", "values": [
      {"measurement": "cytotoxicity against human fibroblast", "setting": "HuF fibroblast cell line", "result": "no cytotoxicity observed"},
      {"measurement": "TC50 HuF (sub-confluent)", "setting": "HuF fibroblast cell line; sub-confluent, ref Rusman et al. 2020 [25]", "result": "21.4 ± .9 µM"},
      {"measurement": "TC50 HCT-8 (confluent)", "setting": "HCT-8 cells; confluent", "result": "> 30", "unit": "µM"},
      {"measurement": "toxicity to host cells (no toxicity up to)", "setting": "HCT-8 cells; confluent HCT-8, conditions of the infection assay, 48 h, cellular ATP", "result": "> 100", "unit": "µM"},
      {"measurement": "more cytotoxic towards host HCT-8 cells versus oidiolactone A", "setting": "HCT-8 cells; non-confluent conditions", "result": "~ 15 x"},
      {"measurement": "TC50 HCT-8 (sub-confluent)", "setting": "HCT-8 cells; sub-confluent", "result": "2.1 ± 0.3", "unit": "µM"},
      {"measurement": "EC50 at 48 h", "setting": "HCT-8 cytotoxicity assay", "result": 2100, "unit": "nM"},
      {"measurement": "TC50 HepG2", "setting": "HepG2 human hepatocytes", "result": "10.3 ± 2.19", "unit": "µM"},
      {"measurement": "EC50", "setting": "P. falciparum 3D7", "result": "1.22e-06 ± 4.19e-07", "unit": "M"},
      {"measurement": "SI: selectivity index=EC50 HepG2/ EC50 compound", "setting": "P. falciparum line Dd2", "result": 11},
      {"measurement": "EC50", "setting": "P. falciparum line Dd2; Plasmodium falciparum, DD2, 72 h, read-out: EC50 Dd2 (M)", "result": "9.83e-07 ± 1.11e-07", "unit": "M"},
      {"measurement": "EC50", "setting": "T. gondii", "result": 580, "unit": "nM"},
      {"measurement": "increase in inhibitory activity against C. parvum versus oidiolactone A", "setting": "C. parvum; 7,8 double bond vs. 7α,8α-epoxy group", "result": 2, "unit": "fold"},
      {"measurement": "EC50", "setting": "C. parvum; HCT-8, abstract, read-out: EC50 against C. parvum", "result": 240, "unit": "nM"},
      {"measurement": "EC50", "setting": "C. parvum; Cp-NLuc-infected HCT-8 cells, 7.5 µM to 117 nM, Figure 2E, read-out: C. parvum EC50", "result": 238, "unit": "nM"},
      {"measurement": "activity against G. lamblia (no activity up to)", "setting": "[1]", "result": "> 29", "unit": "µM"},
      {"measurement": "TC50 HFF (confluent)", "setting": "HFF cells; confluent", "result": "> 30", "unit": "µM"},
      {"measurement": "toxicity to host cells (no toxicity up to)", "setting": "HFF cells; confluent HFF, conditions of the infection assay, 24 h, cellular ATP", "result": "> 100", "unit": "µM"},
      {"measurement": "cytotoxicity against sub-confluent HFF", "setting": "HFF cells; sub-confluent", "result": "no cytotoxicity observed"}
    ]}
  ]
}
